#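 The compound was tested at five concentrations on cells cultured in 96-well plates, with a 48-hour exposure period. At the GI50, growth is halved. TGI: concentration producing complete growth inhibition.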
# How the values were obtained:
# Assay in all cases: growth of human tumour cells (NCI), 48 h
# BT-549 breast = system: BT-549 breast
# OVCAR-5 ovarian = system: OVCAR-5 ovarian
# MCF7 breast = system: MCF7 breast
# UO-31 renal = system: UO-31 renal
# HL-60(TB) leukemia = system: HL-60(TB) leukemia
# RXF 393 renal = system: RXF 393 renal
# CCRF-CEM leukemia = system: CCRF-CEM leukemia
# UACC-257 melanoma = system: UACC-257 melanoma
# SF-268 CNS = system: SF-268 CNS
# PC-3 prostate = system: PC-3 prostate
# HOP-62 NSCLC = system: HOP-62 NSCLC
# SNB-19 CNS = system: SNB-19 CNS
# OVCAR-4 ovarian = system: OVCAR-4 ovarian
# KM12 colon = system: KM12 colon
# COLO 205 colon = system: COLO 205 colon
# ACHN renal = system: ACHN renal
# M14 melanoma = system: M14 melanoma
# SK-OV-3 ovarian = system: SK-OV-3 ovarian
# RPMI-8226 leukemia = system: RPMI-8226 leukemia
# SK-MEL-28 melanoma = system: SK-MEL-28 melanoma
# A498 renal = system: A498 renal
# U251 CNS = system: U251 CNS
# NCI-H23 lung = system: NCI-H23 lung
# MDA-MB-435 = system: MDA-MB-435
# SK-MEL-5 melanoma = system: SK-MEL-5 melanoma
# SK-MEL-2 melanoma = system: SK-MEL-2 melanoma
# MDA-MB-231 breast = system: MDA-MB-231 breast
# HCT-116 colon = system: HCT-116 colon
# NCI-H226 lung = system: NCI-H226 lung
# DU-145 prostate = system: DU-145 prostate
# SW-620 colon = system: SW-620 colon
# SF-295 CNS = system: SF-295 CNS
# 786-0 renal = system: 786-0 renal
# SNB-75 CNS = system: SNB-75 CNS
# HOP-92 NSCLC = system: HOP-92 NSCLC
# SF-539 CNS = system: SF-539 CNS
# UACC-62 melanoma = system: UACC-62 melanoma
# LOX IMVI melanoma = system: LOX IMVI melanoma
# A549 NSCLC = system: A549 NSCLC
# NCI-H522 lung = system: NCI-H522 lung
# HT29 colon = system: HT29 colon
# MALME-3M melanoma = system: MALME-3M melanoma
# OVCAR-3 ovarian = system: OVCAR-3 ovarian
# T-47D breast = system: T-47D breast
# TK-10 renal = system: TK-10 renal
# K-562 leukemia = system: K-562 leukemia
structure (smiles),measurement,setting,value
O=[N+]([O-])c1ccc2scc3c4ccccc4nc-3c2c1,GI50,BT-549 breast,1730 nM
same,TGI,BT-549 breast,3180 nM
same,GI50,OVCAR-5 ovarian,1910 nM
same,TGI,OVCAR-5 ovarian,3750 nM
same,GI50,MCF7 breast,1290 nM
same,TGI,MCF7 breast,3610 nM
same,GI50,UO-31 renal,1160 nM
same,TGI,UO-31 renal,2510 nM
same,GI50,HL-60(TB) leukemia,1170 nM
same,TGI,HL-60(TB) leukemia,5260 nM
same,GI50,RXF 393 renal,1430 nM
same,TGI,RXF 393 renal,2780 nM
same,GI50,CCRF-CEM leukemia,611 nM
same,TGI,CCRF-CEM leukemia,5160 nM
same,GI50,UACC-257 melanoma,1320 nM
same,TGI,UACC-257 melanoma,2720 nM
same,GI50,SF-268 CNS,1480 nM
same,TGI,SF-268 CNS,2860 nM
same,GI50,PC-3 prostate,1730 nM
same,TGI,PC-3 prostate,3500 nM
same,GI50,HOP-62 NSCLC,1780 nM
same,TGI,HOP-62 NSCLC,3240 nM
same,GI50,SNB-19 CNS,1960 nM
same,TGI,SNB-19 CNS,4080 nM
same,GI50,OVCAR-4 ovarian,1670 nM
same,TGI,OVCAR-4 ovarian,3220 nM
same,GI50,KM12 colon,1590 nM
same,TGI,KM12 colon,2960 nM
same,GI50,COLO 205 colon,1790 nM
same,TGI,COLO 205 colon,3520 nM
same,GI50,ACHN renal,1500 nM
same,TGI,ACHN renal,2950 nM
same,GI50,M14 melanoma,1850 nM
same,TGI,M14 melanoma,3580 nM
same,GI50,SK-OV-3 ovarian,1810 nM
same,TGI,SK-OV-3 ovarian,3230 nM
same,GI50,RPMI-8226 leukemia,2120 nM
same,TGI,RPMI-8226 leukemia,6180 nM
same,GI50,SK-MEL-28 melanoma,1720 nM
same,TGI,SK-MEL-28 melanoma,3140 nM
same,GI50,A498 renal,509 nM
same,TGI,A498 renal,2070 nM
same,GI50,U251 CNS,600 nM
same,TGI,U251 CNS,2000 nM
same,GI50,NCI-H23 lung,1900 nM
same,TGI,NCI-H23 lung,5050 nM
same,GI50,MDA-MB-435,1540 nM
same,TGI,MDA-MB-435,3940 nM
same,GI50,SK-MEL-5 melanoma,1620 nM
same,TGI,SK-MEL-5 melanoma,3030 nM
same,GI50,SK-MEL-2 melanoma,1660 nM
same,TGI,SK-MEL-2 melanoma,3310 nM
same,GI50,MDA-MB-231 breast,1650 nM
same,TGI,MDA-MB-231 breast,3220 nM
same,GI50,HCT-116 colon,1330 nM
same,TGI,HCT-116 colon,2940 nM
same,GI50,NCI-H226 lung,2220 nM
same,TGI,NCI-H226 lung,6080 nM
same,GI50,DU-145 prostate,1460 nM
same,TGI,DU-145 prostate,2770 nM
same,GI50,SW-620 colon,462 nM
same,TGI,SW-620 colon,1700 nM
same,GI50,SF-295 CNS,1780 nM
same,TGI,SF-295 CNS,3870 nM
same,GI50,786-0 renal,1840 nM
same,TGI,786-0 renal,3290 nM
same,GI50,SNB-75 CNS,1370 nM
same,TGI,SNB-75 CNS,2660 nM
same,GI50,HOP-92 NSCLC,1660 nM
same,TGI,HOP-92 NSCLC,3280 nM
same,GI50,SF-539 CNS,1800 nM
same,TGI,SF-539 CNS,3350 nM
same,GI50,UACC-62 melanoma,1720 nM
same,TGI,UACC-62 melanoma,3340 nM
same,GI50,LOX IMVI melanoma,1360 nM
same,TGI,LOX IMVI melanoma,> 100000 nM
same,GI50,A549 NSCLC,1740 nM
same,TGI,A549 NSCLC,3850 nM
same,GI50,NCI-H522 lung,342 nM
same,TGI,NCI-H522 lung,1540 nM
same,GI50,HT29 colon,1380 nM
same,TGI,HT29 colon,3030 nM
same,GI50,MALME-3M melanoma,1150 nM
same,TGI,MALME-3M melanoma,2640 nM
same,GI50,OVCAR-3 ovarian,415 nM
same,TGI,OVCAR-3 ovarian,1630 nM
same,GI50,T-47D breast,784 nM
same,TGI,T-47D breast,3320 nM
same,GI50,TK-10 renal,1080 nM
same,TGI,TK-10 renal,2320 nM
same,GI50,K-562 leukemia,402 nM
same,TGI,K-562 leukemia,> 100000 nM
